Counter-ions that a name gives are not always drawn.
Molecular target: MCL-1 (Homo sapiens (Human), UniProt Q07820, K194A/K197A/R201A)
Test: Protein-protein interaction assay MCL-1/Noxa BH3 peptide (MCL-1 assay, TR-FRET)
Type: binding
Conditions: MCL-1 Assay IC50 (median)
In short: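 IC50 came from a 4-parameter regression of the 665/620 nm emission ratio, normalized to DMSO controls. The mix held 1 nM MBP-fused MCL-1 (residues 173-321), a biotin-Noxa BH3 tracer and compound in Tris buffer pH 7, incubated 10 min plus 1 h at 22° C., then overnight at 4° C.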

MCL-1, sequence (Q07820 whole entry, looked up, stated change not applied): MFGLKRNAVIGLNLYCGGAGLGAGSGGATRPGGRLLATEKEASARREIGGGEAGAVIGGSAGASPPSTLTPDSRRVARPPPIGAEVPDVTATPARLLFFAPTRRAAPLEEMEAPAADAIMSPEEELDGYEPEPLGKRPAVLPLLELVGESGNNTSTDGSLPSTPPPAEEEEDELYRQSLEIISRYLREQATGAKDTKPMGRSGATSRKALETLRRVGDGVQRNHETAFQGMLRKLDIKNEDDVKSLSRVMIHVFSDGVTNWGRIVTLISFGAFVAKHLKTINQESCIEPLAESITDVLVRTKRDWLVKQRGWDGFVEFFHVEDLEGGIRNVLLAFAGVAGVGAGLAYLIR

| IC50 [nM] | SMILES |
| --- | --- |
| 22 | Cc1c2c(nn1C)C(C)OCCCCn1c(C(=O)O)c(CCCOc3cccc4ccccc34)c3cccc-2c31 (single isomer, unassigned; stereoisomer 2) [Example 3, 2,3,15-trimethyl-7-[3-(naphthalen-1-yloxy)propyl]-2,10,11,12,13,15-hexahydropyrazolo[4′,3′:9,10][1,6]oxazacycloundecino[8,7,6-hi]indole-8-carboxylic Acid Trifluoroacetic Acid Salt (Stereoisomer 2)] |
| 3.2 | CCc1c2c(nn1C)C(Cc1ccccc1)OCCCCn1c(C(=O)O)c(CCCOc3cccc4cc(F)ccc34)c3ccc(Cl)c-2c31 (racemic) [Example 92, (rac)-(rac-15)-benzyl-4-chloro-3-ethyl-7-{3-[(6-fluoro-1-naphthyl)oxy]propyl}-2-methyl-2,10,11,12,13,15-hexahydropyrazolo[4′,3′:9,10][1,6]oxazacycloundecino[8,7,6-hi]indole-8-carboxylic Acid] |
| 1.3 | CCc1c2c(nn1C)C(C1CC1)OCCCCn1c(C(=O)O)c(CCCOc3cccc4cc(F)ccc34)c3ccc(Cl)c-2c31 (racemic) [Example 38, (rac)-4-chloro-(15-rac)-cyclopropyl-3-ethyl-7-{3-[(6-fluoronaphthalen-1-yl)oxy]propyl}-2-methyl-2,10,11,12,13,15-hexahydropyrazolo[4′,3′:9,10][1,6]oxazacycloundecino[8,7,6-hi]indole-8-carboxylic Acid] |

| SMILES | IC50 [nM] |
| --- | --- |
| Cc1c2c(nn1C)C(CCN1CCOCC1)OCCCCn1c(C(=O)O)c(CCCOc3cccc4cc(F)ccc34)c3ccc(F)c-2c31 (racemic) [Example 19, (rac)-4-fluoro-7-{3-[(6-fluoronaphthalen-1-yl)oxy]propyl}-2,3-dimethyl-15-[2-(morpholin-4-yl)ethyl]-2,10,11,12,13,15-hexahydropyrazolo[4′,3′:9,10][1,6]oxazacycloundecino[8,7,6-hi]indole-8-carboxylic Acid] | 1.6 |

— patent publication US11440923B2, “Substituted macrocyclic indole derivatives” (Bayer Aktiengesellschaft, priority 2017, dated 2022)
